Results as given in ChEMBL document CHEMBL1142165, “Influence on mitochondria and cytotoxicity of different antibiotics administered in high concentrations on primary human osteoblasts and cell lines” (Antimicrob Agents Chemother, 2007).
Converted amounts (≈) assume the structure as drawn. The source made the active and inactive calls. The rule behind the calls is not given here.

Experiments:
[1] = system: MG-63; experiment: Increase in lactate production in MG63 cells at 1 uM after 1 hr by ELISA; format: functional, cell-based; settings: Homo sapiens
[2] = system: Osteoblast; experiment: Increase in lactate production in primary human osteoblasts at 1 uM after 1 hr by ELISA; format: functional, cell-based
[3] = system: Osteoblast; experiment: Increase in lactate production in primary human osteoblasts at 400 ug/ml by ELISA relative to control; format: functional
[4] = Antiproliferative effect against primary human osteoblasts assessed as BrdU incorporation into DNA after 48 hrs; format: functional, cell-based; settings: Osteoblast
[5] = system: Osteoblast; experiment: Increase in lactate production in primary human osteoblasts at 1.5 ug/ml by ELISA; format: functional
[6] = system: Osteoblast; experiment: Antiproliferative effect against primary human osteoblasts in presence of 10% FCS; format: functional, cell-based
[7] = system: Osteoblast; experiment: Inhibition of metabolic activity in primary human osteoblasts assessed as MTT reduction after 48 hrs; format: functional, cell-based
[8] = system: MG-63; experiment: Inhibition of metabolic activity in MG63 cells assessed as MTT reduction after 48 hrs; format: functional, cell-based; settings: Homo sapiens, MG-63, 48 h
[9] = system: MG-63; experiment: Antiproliferative effect against MG63 cells assessed as BrdU incorporation into DNA after 48 hrs after 48 hrs; format: functional, cell-based; settings: Homo sapiens, MG-63, 48 h
[10] = system: HeLa; experiment: Inhibition of metabolic activity in HeLa cells assessed as MTT reduction after 48 hrs; format: functional, cell-based; settings: Homo sapiens
[11] = system: HeLa; experiment: Antiproliferative effect against HeLa cells after 48 hrs; format: functional, cell-based; settings: Homo sapiens
[12] = Cytotoxicity against primary human osteoblasts at 200 ug/ml assessed as LDH release after 24 hrs; format: cell-based; settings: osteoblast
[13] = Cytotoxicity against primary human osteoblasts at 400 ug/ml assessed as LDH release after 24 hrs; settings: osteoblast, at 400 µg/mL
[14] = Cytotoxicity against primary human osteoblasts at 100 ug/ml assessed as LDH release after 24 hrs; format: cell-based; settings: osteoblast
[15] = system: Osteoblast; experiment: Inhibition of metabolic activity in primary human osteoblasts in presence of 10% FCS; format: functional
[16] = system: MG-63; experiment: Increase in lactate production in MG63 cells at 400 ug/ml by ELISA relative to control; format: functional, Homo sapiens
[17] = system: Osteoblast; experiment: Inhibition of metabolic activity in primary human osteoblasts by MTT assay below 1 uM; format: functional, cell-based
[18] = system: Osteoblast; experiment: Increase in lactate production in primary human osteoblasts above 0.25 uM by ELISA; format: functional
[19] = system: Osteoblast; experiment: Increase in lactate production in primary human osteoblasts at 10 hrs by ELISA; format: functional
[20] = system: MG-63; experiment: Inhibition of metabolic activity in MG63 cells by MTT assay relative to control; format: functional, Homo sapiens
[21] = system: MG-63; experiment: Increase in lactate production in MG63 cells at 50 nM by ELISA relative to control; format: functional, Homo sapiens
[22] = system: Osteoblast; experiment: Antiproliferative effect against primary human osteoblasts assessed as BrdU incorporation into DNA after 48 hrs after 48 hrs below 1 uM; format: functional, cell-based
[23] = system: Osteoblast; experiment: Antiproliferative effect against primary human osteoblasts assessed as BrdU incorporation into DNA at 10 ug/ml after 48 hrs; format: functional, cell-based
[24] = system: Osteoblast; experiment: Increase in lactate production in primary human osteoblasts at 25 to 50 ug/ml by ELISA; format: functional
[25] = system: Osteoblast; experiment: Increase in lactate production in primary human osteoblasts at 6 ug/ml by ELISA; format: functional
[26] = system: HeLa; experiment: Decrease in lactate production in HeLa cells at 400 ug/ml by ELISA; format: functional, Homo sapiens; parameters: scale not given: the % may be the effect or the level left
[27] = system: Osteoblast; experiment: Increase in lactate production in primary human osteoblasts at 190 ug/ml by ELISA; format: functional
[28] = system: MG-63; experiment: Decrease in lactate production in MG63 cells at 400 ug/ml by ELISA; format: functional, Homo sapiens; parameters: scale not given: the % may be the effect or the level left
[29] = system: Osteoblast; experiment: Blocking of clindamycin-induced LDH release in primary human osteoblasts at 20mM by ELISA; format: functional, cell-based
[30] = system: Osteoblast; experiment: Blocking of clindamycin-induced lactate production in primary human osteoblasts at 20 mM by ELISA; format: functional, cell-based
[31] = system: MG-63; experiment: Decrease in lactate production in MG63 cells by ELISA; format: functional, cell-based; settings: Homo sapiens
[32] = system: HeLa; experiment: Decrease in lactate production in HeLa cells by ELISA; format: functional, cell-based; settings: Homo sapiens

Row | Compound | IC20 [4] [mg/L] | IC50 [4] [mg/L] | IC20 [7] [mg/L] | IC50 [7] [mg/L] | IC20 [8] [mg/L] | IC50 [8] [mg/L] | IC20 [9] [mg/L] | IC50 [9] [mg/L] | IC20 [10] [mg/L] | IC50 [10] [mg/L] | IC20 [11] [mg/L] | IC50 [11] [mg/L] | Activity [13] [%] | further results
1 | C=C(C)[C@H]1Cc2c(ccc3c2O[C@@H]2COc4cc(OC)c(OC)cc4[C@@H]2C3=O)O1 | – | – | – | – | – | – | – | – | – | – | – | – | – | Activity [1]: Active; Activity [2]: Active
2 | O=C(N[C@H](CO)[C@H](O)c1ccc([N+](=O)[O-])cc1)C(Cl)Cl [CHLORAMPHENICOL] | 60 (≈ 186 µM) | 230 (≈ 712 µM) | 260 (≈ 805 µM) | > 400 | 110 (≈ 340 µM) | 400 (≈ 1240 µM) | 200 (≈ 619 µM) | > 400 | 100 (≈ 309 µM) | 340 (≈ 1050 µM) | 340 (≈ 1050 µM) | > 400 | – | Activity [3]: 150%; Activity [5]: 12%; Activity [6]: Active
3 | CC[C@H]1OC(=O)[C@H](C)[C@@H](O[C@H]2C[C@@](C)(OC)[C@@H](O)[C@H](C)O2)[C@H](C)[C@@H](O[C@@H]2O[C@H](C)C[C@H](N(C)C)[C@H]2O)[C@](C)(O)C[C@@H](C)/C(=N\OCOCCOC)[C@H](C)[C@@H](O)[C@]1(C)O [ROXITHROMYCIN] | 20 (≈ 23.9 µM) | 70 (≈ 83.6 µM) | 110 (≈ 131 µM) | 210 (≈ 251 µM) | 50 (≈ 59.7 µM) | 110 (≈ 131 µM) | 50 (≈ 59.7 µM) | 180 (≈ 215 µM) | 30 (≈ 35.8 µM) | 90 (≈ 108 µM) | 100 (≈ 119 µM) | 160 (≈ 191 µM) | 40 | Activity [12]: 30%; Activity [14]: 20%
4 | GENTAMICIN | – | – | – | – | – | – | – | – | – | – | – | – | – | Activity [6]: inactive
5 | CO[C@H]1/C=C/O[C@@]2(C)Oc3c(C)c(O)c4c(O)c(c(/C=N/N5CCN(C)CC5)c(O)c4c3C2=O)NC(=O)/C(C)=C\C=C\[C@H](C)[C@H](O)[C@@H](C)[C@@H](O)[C@@H](C)[C@H](OC(C)=O)[C@@H]1C [RIFAMPIN] | 30 (≈ 36.5 µM) | 130 (≈ 158 µM) | – | – | – | – | 120 (≈ 146 µM) | 240 (≈ 292 µM) | – | – | 180 (≈ 219 µM) | 270 (≈ 328 µM) | – | Activity [3]: 40%
6 | CC[C@H]1OC(=O)[C@H](C)[C@@H](O[C@H]2C[C@@](C)(OC)[C@@H](O)[C@H](C)O2)[C@H](C)[C@@H](O[C@@H]2O[C@H](C)C[C@H](N(C)C)[C@H]2O)[C@](C)(O)C[C@@H](C)C(=O)[C@H](C)[C@@H](O)[C@]1(C)O [ERYTHROMYCIN] | 30 (≈ 40.9 µM) | 180 (≈ 245 µM) | 210 (≈ 286 µM) | > 400 | 180 (≈ 245 µM) | 310 (≈ 422 µM) | 130 (≈ 177 µM) | 300 (≈ 409 µM) | 110 (≈ 150 µM) | 170 (≈ 232 µM) | 210 (≈ 286 µM) | > 400 | 40 | Activity [6]: Active; IC20 [15]: 11 mg/L; Activity [16]: 60%
7 | CCCCCC[C@H]1C(=O)O[C@H](C)[C@H](NC(=O)c2cccc(NC=O)c2O)C(=O)O[C@@H](C)[C@@H]1OC(=O)CC(C)C [ANTIMYCIN A] | – | – | – | – | – | – | – | – | – | – | – | – | – | Activity [17]: inactive; Activity [18]: 150%; Activity [19]: 14 µmol; Inhibition [20]: 70%; Activity [21]: 50%; Activity [22]: inactive
8 | Cc1nnc(SCC2=C(C(=O)O)N3C(=O)[C@@H](NC(=O)Cn4cnnn4)[C@H]3SC2)s1 [CEFAZOLIN] | 380 (≈ 836 µM) | > 400 | > 400 | > 400 | 400 (≈ 880 µM) | > 400 | 230 (≈ 506 µM) | > 400 | > 400 | > 400 | 270 (≈ 594 µM) | > 400 | – | –
9 | O=C(O)c1cn(C2CC2)c2cc(N3CCNCC3)c(F)cc2c1=O [CIPROFLOXACIN] | 70 (≈ 211 µM) | 170 (≈ 513 µM) | 260 (≈ 785 µM) | > 400 | 60 (≈ 181 µM) | 150 (≈ 453 µM) | 80 (≈ 241 µM) | 160 (≈ 483 µM) | 70 (≈ 211 µM) | 120 (≈ 362 µM) | 100 (≈ 302 µM) | 290 (≈ 875 µM) | – | Activity [23]: Active; Activity [24]: 10%
10 | CC(=O)NC[C@H]1CN(c2ccc(N3CCOCC3)c(F)c2)C(=O)O1 [LINEZOLID] | 240 (≈ 711 µM) | > 400 | > 400 | > 400 | 250 (≈ 741 µM) | > 400 | – | – | 300 (≈ 889 µM) | > 400 | – | – | – | Activity [3]: 120%; Activity [25]: 13%
11 | CN(C)[C@@H]1C(O)=C(C(N)=O)C(=O)[C@@]2(O)C(O)=C3C(=O)c4c(O)cccc4[C@@](C)(O)[C@H]3C[C@@H]12 [TETRACYCLINE] | 60 (≈ 135 µM) | 180 (≈ 405 µM) | – | – | – | – | 60 (≈ 135 µM) | 180 (≈ 405 µM) | – | – | 200 (≈ 450 µM) | > 400 | – | Activity [26]: 50%; Activity [27]: 30%; Activity [28]: 50%
12 | Nc1ncnc2c1ncn2[C@@H]1O[C@H](CO)[C@@H](O)[C@H]1O | – | – | – | – | – | – | – | – | – | – | – | – | – | Activity [29]: Active; Activity [30]: Active
13 | CC[C@H]1OC(=O)[C@H](C)[C@@H](O[C@H]2C[C@@](C)(OC)[C@@H](O)[C@H](C)O2)[C@H](C)[C@@H](O[C@@H]2O[C@H](C)C[C@H](N(C)C)[C@H]2O)[C@](C)(O)C[C@@H](C)CN(C)[C@H](C)[C@@H](O)[C@]1(C)O [AZITHROMYCIN] | 20 (≈ 26.7 µM) | 25 (≈ 33.4 µM) | 80 (≈ 107 µM) | 160 (≈ 214 µM) | 70 (≈ 93.5 µM) | 180 (≈ 240 µM) | 30 (≈ 40.1 µM) | 190 (≈ 254 µM) | 50 (≈ 66.8 µM) | 160 (≈ 214 µM) | 110 (≈ 147 µM) | 240 (≈ 320 µM) | 40 | Activity [12]: 40%; Activity [14]: 20%; Activity [16]: 30%
14 | CCC[C@@H]1C[C@@H](C(=O)N[C@@H]([C@H]2O[C@H](SC)[C@H](O)[C@@H](O)[C@H]2O)[C@H](C)Cl)N(C)C1 [CLINDAMYCIN] | 40 (≈ 94.1 µM) | 150 (≈ 353 µM) | 340 (≈ 800 µM) | > 400 | 200 (≈ 471 µM) | > 400 | 160 (≈ 376 µM) | 250 (≈ 588 µM) | 80 (≈ 188 µM) | 200 (≈ 471 µM) | 230 (≈ 541 µM) | > 400 | 10 | Activity [31]: Active; Activity [6]: Active; Activity [32]: Active; IC20 [15]: 20 mg/L; Activity [16]: 60%
15 | COc1c(N2C[C@@H]3CCCN[C@@H]3C2)c(F)cc2c(=O)c(C(=O)O)cn(C3CC3)c12 [MOXIFLOXACIN] | 80 (≈ 199 µM) | 160 (≈ 399 µM) | 190 (≈ 473 µM) | > 400 | 30 (≈ 74.7 µM) | 170 (≈ 423 µM) | 110 (≈ 274 µM) | 230 (≈ 573 µM) | 40 (≈ 99.6 µM) | 110 (≈ 274 µM) | 90 (≈ 224 µM) | 320 (≈ 797 µM) | 10 | Activity [23]: Active; Activity [24]: 10%
